Source: patent publication US8399106B2, “Composition and method for treating wood” (Kemira OyJ, priority 2007, dated 2013)

Experiments:
[1] = system: Aureobasidium pullulans and Sclerophoma pithyophila (pooled suspension); details: literature reference, 1.0% of NHA; cited from earlier work
[2] = wood treated only with a chelating agent; as described in WO 0123154; cited from earlier work
rot fungi = experiment: Rot resistance / wood protection class (EN 350-1), fungus not specified; type: cell-based; details: treated wood
Method: Rot testing was carried out according to the EN 113 standard. 10 test samples impregnated with respective agents for each of the three rot fungi were used in the test. A sample made of surface wood of pine was placed as a control with the impregnated test samples to the same container for the rot test. Activity of each fungus was tested with eight test samples (so-called infection test). Said test samples for the fungus activity testing were placed in respective containers for the rot test without impregnated test samples.
In the method, an X value was calculated for each impregnation batch and for each fungus, said X value describing the ratio of the mass loss of the impregnated test samples to that of the unimpregnated control samples. X value was calculated by dividing the corrected mass loss of the impregnated test samples by that of the unimpregnated control samples. The calculation was based on mean values. Based on the result obtained, the rot resistance class was determined as follows for the fungus with the highest rot activity:

O=C1c2cccc3cccc(c23)C(=O)N1O [NHA, N,N-naphthaloylhydroxylamine]
Microbial growth 0 to 5 [1]: 4 (high amounts of microbial growth (more than 40% of the surface of the test sample covered by microbial growth))

O=C(O)CN(CCN(CC(=O)O)CC(=O)O)CC(=O)O [EDTA, ethylenediaminetetraacetic acid]
amounts washed out of wood, in words [2]: so high

O=C[O-].O=C[O-].[Ca+2] [calcium formate]
wood protection class (rot protection standard EN 350-1, classes 1-5) (rot fungi): 3 (Class 3=reasonably resistant 0.30<X≦0.60)
